From BigSolDB 2.1

OC[C@@H](O)[C@@H](O[C@H]1O[C@H](CO)[C@@H](O)[C@H](O)[C@H]1O)[C@H](O)[C@@H](O)CO
solubility (mole fraction)
Details	298.15 K	303.15 K	308.15 K	313.15 K	318.15 K	323.15 K
in DMF	0.00761	0.00819	0.00922	0.0109	0.0128	0.0153
in ethanol	3.6e-05	4.4e-05	5.2e-05	6.2e-05	7.4e-05	9.4e-05
in isopropanol	1.9e-05	2.3e-05	2.7e-05	3e-05	3.8e-05	5.1e-05
in methanol	0.00029	0.000337	0.000393	0.000453	0.000552	0.000706
in water	0.0616	0.0671	0.0786	0.0972	0.111	0.125
